Results on 13 compounds are retold here after patent US12110278B2, “Selective JAK2 pseudokinase ligands and methods of use” (YALE UNIVERSITY, priority 2020, dated 2024).

SMILES strings stand for the structures.

Test system in the first data set: not given
Experiment: not given
Particulars: cited from earlier work.
Take `c1ccoc1` [furan]: the “octanol/water log P” value was 1.34. Consider `c1cocn1` [oxazole], for which the “octanol/water log P” value was 0.12. For `c1cscn1` [thiazole], the “octanol/water log P” value is on record as 0.44.

For `c1ccsc1` [thiophene], the “octanol/water log P” value was 1.81.

Another data set deals with WT JAK2 JH2 (Homo sapiens (Human), UniProt O60674).
Chain of WT JAK2 JH2 (O60674 545-809): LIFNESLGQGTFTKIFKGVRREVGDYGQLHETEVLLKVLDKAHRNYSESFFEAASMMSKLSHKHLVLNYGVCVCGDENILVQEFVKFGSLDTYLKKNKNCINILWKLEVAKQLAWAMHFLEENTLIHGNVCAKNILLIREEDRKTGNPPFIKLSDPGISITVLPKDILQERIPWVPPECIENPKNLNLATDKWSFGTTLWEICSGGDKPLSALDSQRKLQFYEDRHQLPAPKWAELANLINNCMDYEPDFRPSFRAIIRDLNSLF
Experiment: not given
Particulars: read-out: Binding constant with WT JAK2 JH2; cited from earlier work.
In the case of `Nc1ncnc2c1ncn2[C@@H]1O[C@H](COP(=O)(O)OP(=O)(O)OP(=O)(O)O)[C@@H](O)[C@H]1O` [ATP], the Kd was 1.3 µM.

The next data set deals with JAK2 JH2 (Homo sapiens (Human), UniProt O60674). As to the kind of experiment: Competitive fluorescence polarization (FP) assay, JAK2 JH2. Conditions: read-out: Binding Affinity for JAK2 JH2 (Kd) from the FP Assay; wild-type JH2, FP, pH 8.0; mean ± SEM.
Chain of JAK2 JH2 (O60674 536-812 W659A/W777A/F794H): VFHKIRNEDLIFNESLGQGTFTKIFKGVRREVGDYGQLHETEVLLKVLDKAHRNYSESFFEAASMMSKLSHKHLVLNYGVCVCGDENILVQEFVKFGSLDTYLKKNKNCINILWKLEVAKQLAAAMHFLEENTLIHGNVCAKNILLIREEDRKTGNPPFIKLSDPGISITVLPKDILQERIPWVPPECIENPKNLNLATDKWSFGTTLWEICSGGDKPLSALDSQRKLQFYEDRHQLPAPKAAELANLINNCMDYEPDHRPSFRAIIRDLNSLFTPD
Procedure: In a flat black bottom 96 well plate (Corning), the buffer (20 mM Tris-HCl pH 8.0, 150 mM NaCl, 20% Glycerol, 0.5 mM TCEP, 0.01% Tween 20) is added—200 μL to column 1 (blank), 295 μL to column 2, 150 μL to columns 3-12. […] 150 μL was transferred, using a multichannel pipette, from column 2 to 3, 3 to 4, 4 to 5, until reaching the last column to make a serial dilutions (1:2). […] Experiments were carried out by quadruplicates in three independent experiments. The data provided a typical saturation-binding curve and Kd was calculated fitting the results to the Hill equation using Prism 7.
In a flat black bottom 96 well plate (Corning), 200 μL of FP buffer were added to column 1 (blank), 150 μL to column 2, and 140 μL to columns 3-12. […] 2 μL of inhibitor in DMSO at different concentrations were added from column 4 to 12. […] Experiments were carried out by quadruplicates in three independent experiments. Data were analyzed by a least-squares non-linear fit, generated using Prism 7 in order to determine the compound's IC50. Kd values for each inhibitor are calculated using the following equation based on the IC50, Kd of the tracer (Kd^t), total (Lt) and bound (Lb) tracer, as well as total protein concentration (Pt)^13
Turning to `Nc1nc(Nc2ccc(S(N)(=O)=O)cc2)nn1Cc1c(F)cccc1F` [Compound 2, 4-((5-amino-1-(2,6-difluorobenzyl)-1H-1,2,4-triazol-3-yl)amino)benzenesulfonamide], the Kd was 16.7 µM. `Nc1nc(Nc2ccc(S(N)(=O)=O)cc2)nn1C(=O)Nc1ccccc1` [Compound 4]: the Kd came out at 4.7 µM. On the same count and under the same terms, next, `CN(C(=O)n1nc(Nc2ccc(S(N)(=O)=O)cc2)nc1N)c1ccccc1` [Compound 5, 5-amino-N-methyl-N-phenyl-3-((4-sulfamoylphenyl)amino)-1H-1,2,4-triazole-1-carboxamide]: 47.8 ± 9.2 µM; `Nc1nc(Nc2ccc(S(N)(=O)=O)cc2)nn1C(=O)Nc1ccccn1` [Compound 6]: 30.5 ± 3.6 µM. As for `Nc1nc(Nc2ccc(S(N)(=O)=O)cc2)nn1C(=O)Nc1cccnc1` [Compound 7, 5-amino-N-(pyridin-3-yl)-3((4-sulfamoylphenyl)amino)-1H-1,2,4-triazole-1-carboxamide], the Kd was 12.3 µM. Take `N#Cc1ccc(Nc2nc(N)n(C(=O)Nc3cccc(OCC(=O)O)c3)n2)cc1` [Compound 11, 2-(3-(5-amino-3((4-cyanophenyl)amino)-1H-1,2,4-triazole-1-carboxamido)phenoxy)acetic acid]: the Kd came to 4 µM. With `Nc1nc(Nc2ccc(S(N)(=O)=O)cc2)nn1C(=O)Nc1ccc(-c2ccc(C(=O)O)o2)cc1` [Compound 13, 5-(4-(5-amino-3((4-sulfamoylphenyl)amino)-1H-1,2,4-triazole-1-carboxamido)phenyl)furan-2-carboxylic acid], the Kd worked out at 0.439 ± 0.064 µM. Consider `Nc1nc(Nc2ccc(S(N)(=O)=O)cc2)nn1C(=O)Nc1ccc(-c2nnc(C(=O)O)o2)cc1` [Compound 14, 5-(4-(5-amino-3((4-sulfamoylphenyl)amino)-1H-1,2,4-triazole-1-carboxamido)phenyl)-1,3,4-oxadiazole-2-carboxylic acid], for which the Kd was 7 ± 0.1 µM.

For a further data set, the target named is JAK2 JH2 V617F mutant (Homo sapiens (Human), UniProt O60674, V617F).
Chain of JAK2 JH2 V617F mutant (O60674 545-809 V617F): as the sequence (O60674 545-809) above, with V73F counted along it
Experiment: not given
Conditions: cited from earlier work.
As for `Nc1ncnc2c1ncn2[C@@H]1O[C@H](COP(=O)(O)OP(=O)(O)OP(=O)(O)O)[C@@H](O)[C@H]1O` [ATP], the Kd is 1.3 µM.
